Data as given in patent US4916146A, “Amino acid imide derivatives, usage thereof, and medicinal composition containing the same” (Zeria Pharmaceutical Co., Ltd., priority 1987, dated 1990).
Like-named read-outs stand apart in the source and are kept apart here.

Assays:
ICR male mice [1] = assay: Anti-hypoxic activity (survival time under 4% O2 + 96% N2); format: in vivo; settings: 30 minutes before mixed gas, control = 100
Procedure: Groups of ICR male mice, age 4 to 5 weeks, each group consisting of 10 mice and each mouse having been fasted for 24 hours, were used for the test. Mice were placed in a transparent desiccator (diameter: 19 cm, height: 30 cm) made of synthetic resin and having 2 bulbs, one at the upper portion and the other at the lower portion, for replacing the gas therein. A mixed gas (4% O2 +96% N2) was fed from the upper bulb at a rate of 10 l/min to measure the period of time until respiratory arrest took place for each mouse. The time measured was taken as the time of survival.
Each tested compound suspended in 5% gum arabic solution was intraperitoneally administered 30 minutes before the start of the mixed gas feeding. A group of mice to which only 5% gum arabic solution was intraperitoneally administered was used as a control.
Compounds, not sufficiently suspended in 5% gum arabic, were dissolved with Tween 80 so that the final concentration of the detergent was 3%, followed by the addition of 5% gum arabic. The anti-hypoxic activity was determined according to the following formula: [formula]

[2] = biological target: T1, prolyl endopeptidase prepared from canine brains (Canis lupus familiaris, UniProt A0A8I3N6C8); assay: Inhibitory activity against prolyl endopeptidase from brain; format: biochemical; settings: substrate carbobenzoxyglycylprolyl paranitroanilide, 37° C., 10 minutes, read-out: Inhibition Potency, IC50
T1 construct: Prolyl endopeptidase was prepared from canine brains; from tissue; host or cells: canine brain
T1 sequence (A0A8I3N6C8 1-710): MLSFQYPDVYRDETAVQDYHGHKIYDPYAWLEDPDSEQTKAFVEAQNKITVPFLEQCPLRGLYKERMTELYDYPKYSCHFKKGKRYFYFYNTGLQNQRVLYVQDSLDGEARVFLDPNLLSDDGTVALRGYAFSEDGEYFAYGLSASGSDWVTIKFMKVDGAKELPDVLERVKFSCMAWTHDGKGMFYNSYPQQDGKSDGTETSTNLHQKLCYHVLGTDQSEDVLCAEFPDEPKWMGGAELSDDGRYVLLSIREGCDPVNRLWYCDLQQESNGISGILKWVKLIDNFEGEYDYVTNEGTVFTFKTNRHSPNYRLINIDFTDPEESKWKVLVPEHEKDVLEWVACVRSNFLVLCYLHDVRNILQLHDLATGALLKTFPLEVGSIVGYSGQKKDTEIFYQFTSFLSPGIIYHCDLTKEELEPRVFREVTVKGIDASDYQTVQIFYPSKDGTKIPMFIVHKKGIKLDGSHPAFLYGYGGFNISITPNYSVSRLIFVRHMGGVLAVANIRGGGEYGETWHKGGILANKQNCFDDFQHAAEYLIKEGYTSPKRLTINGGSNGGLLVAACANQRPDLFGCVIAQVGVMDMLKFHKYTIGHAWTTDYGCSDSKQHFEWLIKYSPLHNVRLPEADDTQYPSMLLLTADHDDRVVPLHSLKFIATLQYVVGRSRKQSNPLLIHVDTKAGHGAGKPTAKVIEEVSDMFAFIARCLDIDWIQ
Procedure: Buffer A: 20 mM Tris-HCl buffer (pH 7.0)
Buffer B: a solution containing 0.1% gelatin, 1 mM EDTA, and 1 mM mercapto ethanol in buffer solution A
Prolyl endopeptidase was dissolved with the Buffer B at a concentration of 0.4 unit/ml. This solution (50 μl) was added to 940 μl of the Buffer A, and the solution thus obtained was left at 37° C. for 10 minutes (This solution is herein referred to as "Enzyme solution"). A mixed solution of 50 μl of the Buffer B and 940 μl of Buffer A was used as a "Correction solution".
A test compound was dissolved with dimathylsulfoxide (10 μl) was added to the Enzyme solution. The mixture was stirred and allowed to stand at 37° C. for 10 minutes. Separately, 10 μl of dimethylsulfoxide was added to the Enzyme solution and was processed in the same manner. The solution thus obtained was served as a "Control solution". The same procedure was carried out on the Correction solution.
One hundred micoliters of 2.5 mM carbobezoxyglycylprolyl paranitroanilide, which was dissolved with 40% dioxane, was added to each of the above 3 solutions, i.e., the Enzyme solution with the test compound, Control solution, and Correction solution, and the reaction was carried out at 37° C. for 10 minutes.
Enzyme activities were determined by subtracting the blank value, i.e., the absorbance measured on the Correction solution, from the absorbance of each of the sample solutions and of the Control solution.

Fisher 344 male rats = assay: Toxicity experiment, oral administration; format: in vivo; settings: period of 14 days; for Mortality: 500, 1,000, 1,500 and 2,000 mg/kg orally in propylene glycol
Text: Groups of Fisher 344 male rats, age 6 weeks, each group consisting of 5 rats were used for the test.

[3] = biological target: prolyl endopeptidase from Flavobacterium (Elizabethkingia meningoseptica, UniProt P27028); assay: biochemical
Chain of prolyl endopeptidase from Flavobacterium (P27028 21-705): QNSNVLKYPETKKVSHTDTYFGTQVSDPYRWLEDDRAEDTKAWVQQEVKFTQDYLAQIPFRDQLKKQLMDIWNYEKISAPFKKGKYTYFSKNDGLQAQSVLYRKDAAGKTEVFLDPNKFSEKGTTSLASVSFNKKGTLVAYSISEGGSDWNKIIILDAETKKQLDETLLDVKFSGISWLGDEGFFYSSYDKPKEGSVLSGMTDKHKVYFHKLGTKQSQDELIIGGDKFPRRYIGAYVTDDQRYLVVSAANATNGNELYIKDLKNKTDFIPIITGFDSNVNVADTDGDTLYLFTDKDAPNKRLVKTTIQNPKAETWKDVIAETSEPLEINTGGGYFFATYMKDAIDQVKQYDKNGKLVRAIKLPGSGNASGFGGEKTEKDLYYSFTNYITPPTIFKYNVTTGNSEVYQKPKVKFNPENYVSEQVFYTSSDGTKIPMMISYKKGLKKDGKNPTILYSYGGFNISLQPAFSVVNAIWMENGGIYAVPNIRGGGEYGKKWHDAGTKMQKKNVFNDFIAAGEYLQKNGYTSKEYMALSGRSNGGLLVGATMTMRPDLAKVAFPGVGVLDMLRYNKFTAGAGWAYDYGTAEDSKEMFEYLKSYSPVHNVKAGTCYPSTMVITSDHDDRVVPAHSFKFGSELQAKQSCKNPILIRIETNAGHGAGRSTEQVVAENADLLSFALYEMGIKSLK
Procedure: Inhibitory activity of the compound of formula (I) against prolyl endopeptidase from Flavobacterium was measured according to the method of Yoshimoto and Tsuru [Arg.
Prolyl endopeptidase was dissolved with 20 mM Tris-HCl buffer (pH 7.4) at a concentration of 0.4 unit/ml. This solution (100 μl) was added to 890 μl of the same buffer, and the solution thus obtained was left at room temperature for 10 minutes. (This solution is herein referred to as an "Enzyme solution"). This buffer (990 μl) was used as a "Correction solution".
Test compound dissolved with dimethylsulfoxide (10 μl) was added to the Enzyme solution. The solution was stirred and allowed to stand at room temperature for 10 minutes. Separately, 10 μl of dimethylsulfoxide was added to Enzyme solution and was processed in the same manner. The solution thus obtained was served as a "Control solution". The same procedure was carried out on the Correction solution.
Enzyme activities were determined by subtracting the blank value, i.e., the absorbance measured on the Correction solution, from the absorbance of each of the sample solutions or of the Control solution.

ICR male mice [4] = assay: Toxicity experiment, intraperitoneal administration; format: in vivo; settings: 300 mg/kg intraperitoneally in 5% gum arabic, period of 7 days
Procedure: Groups of ICR male mice, age 4 to 5 weeks, each group consisting of 10 mice were used for the test. A dose of 300 mg/kg of each compound prepared in Examples 1 and 2 hereinbelow suspended in 5% gum arabic was intraperitoneally administered to each group of mice.

ICR male mice [5] = assay: Anti-amnesic activity (cycloheximide-induced amnesia, step-down passive avoidance); format: in vivo; settings: for Amnesic Mice (%): latency shorter than 150 seconds at 24 hours
Procedure: Compounds of this invention were checked with respect to their abilities to prevent the inhibition of long-term memory fixation by cycloheximide which is an amnesia inducing compound. ICR male mice, age 6 to 7 weeks, were used for the test. The test was carried out using a step-down passive avoidance apparatus.
On the first day, a 5-minute training was given to each mouse which was placed on a rubber platform. Every time when the mouse stepped down on the grid floor, a 0.2 mA electric foot shock was applied until it stepped up on the platform. This motion of the mouse was repeated for 5 minutes.
Administration of cycloheximide and the compound of this invention was performed immediately after the training. Cycloheximide was dissolved in a saline and subcutaneously administered to the mouse. The compound of this invention, suspended in a sesame oil/Tween 80/5% gum arabic (3/1/96; by volume), was intraperitoneally administered. Aniracetam suspended in 5% gum arabic was orally administered. Twenty-four hours after the training, a retention test was performed, which consisted of placing the mouse on the platform again and measuring the latency of the mouse to step down on the grid floor. The amnesia ratio for each group of mice was determined as the percentage of amnesic mice taken latency shorter than 150 seconds.
- wherein %A is a percentage of amnesic mice, t denotes a test compound,
stands for cycloheximide, v stands for vehicle, and s stands for saline

[6] = read-out: Inhibition Potency, IC50
[7] = 1 mg/kg ip + cycloheximide 200 mg/kg sc
[8] = 3 mg/kg ip + cycloheximide 200 mg/kg sc
[9] = 30 mg/kg po + cycloheximide 200 mg/kg sc
[10] = 60 mg/kg po + cycloheximide 200 mg/kg sc

SMILES: O=C([C@@H]1CSCN1C(=O)CCCc1ccccc1)N1CCCC1 [Compound of Ex. 3, N-(4-phenylbutanoyl)-L-thioprolylpyrrolidineimide]
- Anti-hypoxic Activity (%) (ICR male mice [1]; dose 100 mg/kg ip): 169%
- IC50 [2]: 0.031 µM
- Mortality (Fisher 344 male rats): No fatal problem

SMILES: O=C([C@@H]1CCCN1C(=O)CCCc1ccccc1)N1CCCC1 [SUAM 1221, reference compound]
- Rats died out of the 5 rats (Fisher 344 male rats; 1,500 mg/kg orally): one
- Rats died out of the 5 rats (Fisher 344 male rats; 2,000 mg/kg orally): 2

SMILES: O=C([C@@H]1CCCN1C(=O)CCCc1ccccc1)N1CCSC1 [Compound of Ex. 2, N-(4-phenylbutanoyl)-L-prolylthiazolidineimide]
- IC50 [3, 6]: 0.15 µM
- Mortality (ICR male mice [4]): No fatal problem
- Anti-hypoxic Activity (%) (ICR male mice [1]; dose 100 mg/kg ip): 160%
- IC50 [2]: 0.041 µM
- Mortality (Fisher 344 male rats): No fatal problem

SMILES: COC1=C(OC)C(=O)C(CCCCCCCCCCO)=C(C)C1=O [Idebenone, reference compound]
- Anti-hypoxic Activity (%) (ICR male mice [1]; dose 100 mg/kg ip): 140%

SMILES: CC(C)(CO)[C@@H](O)C(=O)NCCCC(=O)O [Calcium hopantenate, reference compound]
- IC50 ([3]; prolyl endopeptidase from Flavobacterium, substrate carbobenzoxyglycylprolyl paranitroanilide, 37° C., 10 minutes, read-out: Inhibition Potency, IC50): > 1000 µM
- Anti-hypoxic Activity (%) (ICR male mice [1]; dose 250 mg/kg ip): 135%

SMILES: O=C([C@@H]1CSCN1C(=O)CCCc1ccccc1)N1CCSC1 [Compound of Ex. 1, N-(4-phenylbutanoyl)-L-thioprolylthiazolidineimide]
- IC50 [3, 6]: 0.087 µM
- Mortality (ICR male mice [4]): No fatal problem
- Anti-hypoxic Activity (%) (ICR male mice [1]; dose 100 mg/kg ip): 124%
- IC50 [2]: 0.017 µM
- Mortality (Fisher 344 male rats): No fatal problem
- Amnesia Reversal (%) (ICR male mice [5]; [7]): 28.2%
- Amnesic Mice (%) (ICR male mice [5]; [7]): 52.9%
- Amnesia Reversal (%) (ICR male mice [5]; [8]): 74.8%
- Amnesic Mice (%) (ICR male mice [5]; [8]): 26.7%

SMILES: O=C([C@H]1CCCN1C(=O)CCCc1ccccc1)N1CCSC1 [Compound of Ex. 4, N-(4-phenylbutanoyl)-D-prolylthiazolidineimide]
- Anti-hypoxic Activity (%) (ICR male mice [1]; dose 100 mg/kg ip): 164%

SMILES: COc1ccc(C(=O)N2CCCC2=O)cc1 [Aniracetam, reference compound]
- IC50 [3]: > 1000 µM
- Anti-hypoxic Activity (%) (ICR male mice [1]; dose 100 mg/kg ip): 115%
- Anti-hypoxic Activity (%) (ICR male mice [1]; dose 300 mg/kg ip): 159%
- Amnesia Reversal (%) (ICR male mice [5]; [9]): 22.8%
- Amnesic Mice (%) (ICR male mice [5]; [9]): 42.9%
- Amnesia Reversal (%) (ICR male mice [5]; [10]): 7.2%
- Amnesic Mice (%) (ICR male mice [5]; [10]): 50.0%
